Where “and” joins values, the source holds several entries; their conditions need not be identical. Equal entries are not always repeated. Where two headings read alike, the source gives them in different places.
Columns and labels:
[1] = water
[2] = Electrochemical testing (Tafel Plot) of corrosion current and corrosion potential
[3] = Primary skin irritation; type: in vivo; conditions: 0.5 g in saline paste; for Skin irritation rating: in words
[4] = Salt spray test, alkyd formulations (Example VI, FIG. 3); conditions: alkyd formulation, ASTM B117-73, in words
Experimental: One coat of paint was applied using a Henry K. Gardner Laboratory draw-down, with either a 6 mil or 8 mil draw-down blade. The draw-down speed was 1 inch per second. Such coat of paint was allowed to cure for two weeks under ambient conditions, in the case of both alkyd and latex paints. The dried coating thickness was measured with Elcometer Coating thickness gauge, Model #150/-FNIE. Acceptable thicknesses of the cured film were 2.5-3.5 mils.
Stormer viscosity (ASTM D562-55) for all alkyd paints was greater than 90, and for all latex paints was greater than 80.

[5] = Draize eye irritation; type: in vivo; conditions: 100 mg; for Eye irritation rating: in words
[6] = Acute oral toxicity; type: in vivo; conditions: 5 g/kg in corn oil
[7] = Salt spray test, alkyd formulations (Example V, FIG. 1)
[8] = type: physicochemical; conditions: simulated rain solution saturated with the pigment; electrolyte pH about 4.2
[9] = overall conclusion in words
[10] = Tafel Plot, simulated acid rain saturated with pigment, SAE-1020 steel, 5.16 square centimeters
[11] = against saturated calomel electrode, simulated acid rain saturated with pigment

With `NCCN.O=C([O-])CCCC(=O)[O-].[Zn+2]` [Compound 2, Zinc Glutarate Ethylenediamine] the Solubility [1] was “.16” and the Solubility description [1] was “SS (key: PINS: practically insoluble (<.1 g/100cc H2 O); SS: slightly soluble (.1 to 1 g/100cc H2 O); MS: moderately soluble)”.
In the case of `NCCN.O=C([O-])CCCCC(=O)[O-].[Zn+2]` [Compound 3, Zinc Adipate Ethylenediamine], the “Corrosion current (Icorr)” value [2, 10] is reported as 78 microamps, the Skin irritation score [3] is reported as 0.42 and the Skin irritation rating [3] is reported as “minimally irritating”. The “Salt spray durability, comparison” value [4] was “superior to "Zinc Yellow" (zinc chromate) in salt spray durability”, the Eye irritation score [5] was 19.0 and the Eye irritation rating [5] was “moderately-irritating”. For the same compound, the mortality ([6]; in vivo, 5000 mg/kg) was 0%.
For `CC(N)CN.O=C([O-])CCCCC(=O)[O-].[Zn+2]` [Compound 4, Zinc Adipate Propylenediamine], the “Salt spray durability, comparison” value [4] was “superior to "Zinc Yellow" (zinc chromate) in salt spray durability”.
For `NCCN.O=C([O-])CCCCCCCC(=O)[O-].[Zn+2]` [Compound 5, Zinc Azelate Ethylenediamine], the “Corrosion current (Icorr)” value [2, 10] was 82 microamps, the “Corrosion potential (Ecorr)” value [2, 11] was -667 millovolts and the “Effect of kaolin on salt spray performance” value ([7]; alkyd formulation, combination with kaolin, in words) was “anomolously reduced the performance”. The Solubility [1] was “.21” and the Solubility description [1] was “SS (key: PINS: practically insoluble (<.1 g/100cc H2 O); SS: slightly soluble (.1 to 1 g/100cc H2 O); MS: moderately soluble)”.
For `NCCN.O=C([O-])CCCCCCCCC(=O)[O-].[Zn+2]` [Compound 6, Zinc Sebacate Ethylenediamine], the “Corrosion current (Icorr)” value [2] was 170 microamps and > 100 microamps, the “Corrosion potential (Ecorr)” value [2] was -462 millovolts and the Skin irritation score [3] was 0.13. The Skin irritation rating [3] was “minimally irritating”, the Eye irritation score [5] was 37.2 and the Eye irritation rating [5] was “severely irritating”.
With `O=C([O-])CCCCCCCCCCC(=O)[O-].OCCN(CCO)CCO.[Zn+2]` [Compound 10, Zinc Dibasate Triethanolamine] the “Corrosion current (Icorr)” value [2] was 93 microamps, the “Corrosion potential (Ecorr)” value [2] was -580 millovolts and the “Salt spray durability, comparison” value [4] was “superior to "Zinc Yellow" (zinc chromate) in salt spray durability”.
In the case of `NCCN.O=C([O-])CCCCCCCCCCC(=O)[O-].[Zn+2]` [Compound 11, Zinc Dodecanedioate Ethylenediamine], the “Corrosion current (Icorr)” value [2, 10] is reported as 130 microamps and > 100 microamps, the “Salt spray durability, comparison” value [4] is reported as “superior to "Zinc Yellow" (zinc chromate) in salt spray durability” and the Solubility [1] is reported as “.015”. The Solubility description [1] was “PINS (key: PINS: practically insoluble (<.1 g/100cc H2 O); SS: slightly soluble (.1 to 1 g/100cc H2 O); MS: moderately soluble)”.
In the case of `CCNCC.O=C([O-])CCCCCCCCCCC(=O)[O-].[Zn+2]` [Compound 12, Zinc Dodecanedioate Diethylamine], the “Corrosion current (Icorr)” value [2] is reported as 197 microamps and > 100 microamps.
For `NCCN.O=C([O-])c1ccccc1C(=O)[O-].[Zn+2]` [Compound 17, Zinc Phthalate Ethylenediamine], the “Corrosion current (Icorr)” value [2] was 83 microamps, the Skin irritation score [3] was 0.00 and the Skin irritation rating [3] was “non-irritating”. The Solubility [1] was “.02” and the Solubility description [1] was “PINS (key: PINS: practically insoluble (<.1 g/100cc H2 O); SS: slightly soluble (.1 to 1 g/100cc H2 O); MS: moderately soluble)”.
For `NCCN.O=C([O-])c1cccc(C(=O)[O-])c1.[Zn+2]` [Compound 18, Zinc Isophthalate Ethylenediamine], the “Salt spray durability, comparison” value [4] was “superior to "Zinc Yellow" (zinc chromate) in salt spray durability” and the Solubility [1] was 1.13.
In the case of `NCCN.O=C([O-])c1ccc(C(=O)[O-])cc1.[Zn+2]` [Compound 19, Zinc Terephthalate Ethylenediamine], the Solubility [1] is reported as “.66” and the Solubility description [1] is reported as “SS (key: PINS: practically insoluble (<.1 g/100cc H2 O); SS: slightly soluble (.1 to 1 g/100cc H2 O); MS: moderately soluble)”.
In the case of Zinc Dibasate Diethylamine [Compound 9], the “Corrosion current (Icorr)” value [2] is reported as 30 microamps, the “Corrosion current (Icorr), second test” value [2] is reported as 177 microamps and > 100 microamps and the “Corrosion potential (Ecorr)” value [2] is reported as -570 millovolts. For the same compound, the Eye irritation score [5] was 5.5, the Eye irritation rating [5] was “mildly irritating” and the “Oral acute toxicity, mortality” value [6] was 0%.
With “Zinc Dibasate Dimethylamine [Compound 21]” the “Corrosion current (Icorr)” value [2] was 82 microamps and the “Corrosion potential (Ecorr)” value [2] was -610 millovolts.
For Zinc Dibasate Piperidine [Compound 24], the “Corrosion current (Icorr)” value [2] was 40 microamps and the “Corrosion potential (Ecorr)” value [2] was -610 millovolts.
With “Zinc Dibasate Propylenediamine [Compound 8]” the Solubility [1] was “.16” and the Solubility description [1] was “SS (key: PINS: practically insoluble (<.1 g/100cc H2 O); SS: slightly soluble (.1 to 1 g/100cc H2 O); MS: moderately soluble)”.
In the case of Zinc Dibasate Pyridine [Compound 23], the “Corrosion current (Icorr)” value [2, 10] is reported as 60 microamps, the “Corrosion potential (Ecorr)” value [2, 11] is reported as -550 millovolts and the pH [8] is reported as 7.0.
In the case of “Zinc Dibasate-1,2-Diaminopropane [8^(3)]”, the “Corrosion current (Icorr)” value [2, 10] is reported as 90 microamps, the “Corrosion potential (Ecorr)” value [2, 11] is reported as -570 millovolts and the pH [8] is reported as 7.55.
In the case of “Zinc Quinizarinate Ethylenediamine [Compound 22]”, the “Corrosion current (Icorr)” value [2, 10] is reported as 84 microamps and the “Corrosion potential (Ecorr)” value [2, 11] is reported as -570 millovolts.
With “Zinc Sulfonyldiphenolate Ethylenediamine [Compound 15]” the “Corrosion current (Icorr)” value [2] was 170 microamps and > 100 microamps, the “Corrosion potential (Ecorr)” value [2] was -592 millovolts and the Skin irritation score [3] was 0.08. The Skin irritation rating [3] was “non-irritating”, the Eye irritation score [5] was 31.0 and the Eye irritation rating [5] was “severely irritating”.
For “Zinc Thiodiphenolate Ethylenediamine [Compound 14]”, the “Corrosion current (Icorr)” value [2] was 52.5 microamps, the “Corrosion potential (Ecorr)” value [2] was -570 millovolts and the “Effect of kaolin on salt spray performance” value [7] was “enhanced the performance”. For the same compound, the Eye irritation score [5] was 53.7, the Eye irritation rating [5] was “extremely irritating” and the Toxicity characteristics [9] was “unacceptable toxicity characteristics”.
With “Zinc Thiodiphenolate Propylenediamine [Compound 20]” the “Corrosion current (Icorr)” value [2] was 46 microamps and the “Corrosion potential (Ecorr)” value [2] was -560 millovolts.

Reference: patent US4626283A, “Corrosion and marine growth inhibiting compositions” (Engelhard Corporation, priority 1985, dated 1986)
